Test results: patent US20260306464A1, “LINAPRAZAN GLURATE FOR TREATING GASTROESOPHAGEAL REFLUX DISEASE (GERD)” (Cinclus Pharma Holding AB (publ), priority 2023, published 2026)

Columns and labels:
[1] = LEED study: safety and tolerability (adverse events); details: for COVID-19 (%) / COVID-19 events / Constipation (%) / Constipation events / Headache (%) / Headache events / Nausea (%) / Nausea events: TEAE
intragastric pH = assay: Phase I: plasma concentration of linaprazan vs. intragastric pH; format: in vivo, human; details: Phase I studies
From the text: The plasma concentration of linaprazan glurate is only very low and difficult to determine, but the plasma concentration of linaprazan may be determined instead.

[2] = Plasma pharmacokinetics / metabolism of linaprazan glurate; format: in vivo
[3] = LEED study: heartburn assessed by mRESQ-eDiary; format: in vivo, human; details: for % at most mild symptoms 24-hour days (mean) / % heartburn-free 24-hour days (mean) / Patients (%) totally free from heartburn / Patients (%) with at most mild heartburn / Patients (%) with non-mild heartburn: week 4, erosive patients all LA grades
From the text: Relief of reflux-related symptoms may be assessed based on the modified Reflux Symptom Reflux Questionnaire-electronic Diary (mRESQ-eDiary), which is an electronic symptom diary developed for use in partial responders to proton pump inhibitors. mRESQ-eD has three domains (i.e., heartburn, other GERD signs/symptoms and regurgitations/reflux) and eight items (Andrae et al., Clin. Transl. Gastroenterol. 2020, 11(1): e00117).
The study was a randomized, double-blind, active comparator-controlled study with a parallel group design including four arms with linaprazan glurate and one arm with lansoprazole. Pharmacokinetic (PK) blood sampling pre-dose, close before the first and the second dose administration was performed at Day 7, Day 14 and Day 28 visits days in all patients. 248 patients with erosive esophagitis due to GERD LA grade C or D and patients with erosive esophagitis due to GERD LA grade A or B with at least partial symptom response but still endoscopically unhealed after 8 weeks history of standard treatment healing course with PPI, were randomized.
Randomization to one of the treatments with linaprazan glurate 25 mg, 50 mg, 75 mg, 100 mg twice daily (BID), or lansoprazole 30 mg once daily (QD) was based on a 1:1:1:1:1 scheme. One site could not enroll more than about 20% of the overall number of patients (48 patients per site).
The duration of each patient's participation in the study, including screening, blind treatment period and open-label treatment period, was approximately 60 days. The patients were randomized for 4 weeks (28 days, −2/+5 days) of double-blind treatment and were provided with IMP for 35 days (including one additional blister pack dispensed at Visit 2/Day 0) to allow for treatment up to the visit window. […] Following the endoscopic evaluation, all patients received subsequent 4 weeks of open-label treatment with lansoprazole 30 mg QD. Repeated symptom evaluation to detect symptom pattern was assessed during this period.
Four doses of linaprazan glurate (25 mg, 50 mg, 75 mg, 100 mg, and dummies) were administered as tablets twice daily. The active comparator lansoprazole 30 mg and its dummy were administered as capsules once daily in the morning. The study drugs were taken with 100 mL of noncarbonated water at least 30 minutes prior to meals. The duration of double-blind treatment was 28 days −2/+5 days. To blind treatment, each patient received 2 tablets (containing doses of linaprazan glurate (LG) or its dummy) and one capsule (containing lansoprazole or its dummy) in the morning and 2 tablets (containing doses of linaprazan glurate (LG) or its dummy) in the evening, according to the scheme below:
A secondary objective of the study was the safety and tolerability of the four dose levels of linaprazan glurate and lansoprazole, with lansoprazole serving as the active comparator. Another secondary objective of the study was the reflux related symptom pattern during the initial 4 weeks treatment with four dose levels of linaprazan glurate and with lansoprazole, and the symptom pattern during the subsequent additional 4 weeks (weeks 5-8) open-label treatment with lansoprazole 30 mg QD. Heartburn-free 24-hour days and 24-hour days with at most mild heartburn symptoms were assessed based on modified eDiary (mRESQ-eD), including splits into day- and nighttime evaluations.
Reflux related symptoms were assessed based on a modified RESQ-eDiary (mRESQ-eD). Patients were asked to report every 12-hours, once before the morning dose and once before the evening dose of the Investigational Medicinal Product (IMP).

[4] = system: gastric hydrogen potassium pump (H+/K+ ATPase); details: healthy subjects; cited from earlier work

Cc1cccc(C)c1CNc1cc(C(=O)NCCOC(=O)CCCC(=O)O)cn2c(C)c(C)nc12 [linaprazan glurate, 5-{2-[({8-[(2,6-dimethylbenzyl)amino]-2,3-dimethylimidazo[1,2-a]pyridine-6-yl}carbonyl)-amino]ethoxy}-5-oxopentanoic acid]
safety data vs lansoprazole ([1]; LG 25-100 mg BID): comparable to that of lansoprazole | tolerability ([1]; LG 25-100 mg BID): generally well tolerated | COVID-19 (%) ([1]; LG 25 mg BID): 2.0% | COVID-19 events ([1]; LG 25 mg BID): 1 events | Constipation (%) ([1]; LG 25 mg BID): 3.9% | Constipation events ([1]; LG 25 mg BID): 2 events | Headache (%) ([1]; LG 25 mg BID): 2.0% | Headache events ([1]; LG 25 mg BID): 1 events | Nausea (%) ([1]; LG 25 mg BID): 2.0% | Nausea events ([1]; LG 25 mg BID): 1 events | COVID-19 (%) ([1]; LG 50 mg BID): 4.2% | COVID-19 events ([1]; LG 50 mg BID): 2 events | Constipation (%) ([1]; LG 50 mg BID): 2.1% | Constipation events ([1]; LG 50 mg BID): 1 events | Headache (%) ([1]; LG 50 mg BID): 6.3% | Headache events ([1]; LG 50 mg BID): 3 events | Nausea (%) ([1]; LG 50 mg BID): 0.0% | Nausea events ([1]; LG 50 mg BID): 0 events | COVID-19 (%) ([1]; LG 75 mg BID): 1.9% | COVID-19 events ([1]; LG 75 mg BID): 1 events | Constipation (%) ([1]; LG 75 mg BID): 3.8% | Constipation events ([1]; LG 75 mg BID): 2 events | Headache (%) ([1]; LG 75 mg BID): 1.9% | Headache events ([1]; LG 75 mg BID): 1 events | Nausea (%) ([1]; LG 75 mg BID): 0.0% | Nausea events ([1]; LG 75 mg BID): 0 events | COVID-19 (%) ([1]; LG 100 mg BID): 8.5% | COVID-19 events ([1]; LG 100 mg BID): 4 events | Constipation (%) ([1]; LG 100 mg BID): 0.0% | Constipation events ([1]; LG 100 mg BID): 0 events | Headache (%) ([1]; LG 100 mg BID): 2.1% | Headache events ([1]; LG 100 mg BID): 1 events | Nausea (%) ([1]; LG 100 mg BID): 0.0% | Nausea events ([1]; LG 100 mg BID): 0 events | pH control (intragastric pH): dose dependent | plasma concentration of linaprazan glurate ([2]; following absorption): very low | metabolism into linaprazan ([2]; following absorption into the blood stream): quickly metabolized into linaprazan | heartburn severity, rank among groups ([3]; FAS Erosive, first week, morning and evening, LG 75 mg BID): lowest heartburn severity | percentage of symptom free days (highest of groups) ([3]; FAS Erosive, week 1, LG 75 mg BID): 33.3% | heartburn-free days vs lansoprazole ([3]; FAS Erosive, week 1 to 4, all LG groups): more heartburn-free days | percentage of symptom free days (highest of groups) ([3]; FAS Erosive, week 2, LG 75 mg BID): 57.2% | percentage of symptom free days (highest of groups) ([3]; FAS Erosive, week 3, LG 75 mg BID): 62.6% | percentage of symptom free days (highest of groups) ([3]; FAS Erosive, week 4, LG 100 mg BID): 65.2% | percentage of heartburn-free days (highest of groups) ([3]; FAS Erosive, week 5 open-label lansoprazole, former LG 75 mg group): 72.6% | heartburn-free days vs lansoprazole ([3]; FAS Erosive, week 5 to 8 open-label (all on lansoprazole 30 mg QD), former LG groups): more heartburn-free days | percentage of heartburn-free days (highest of groups) ([3]; FAS Erosive, week 6 open-label lansoprazole, former LG 75 mg group): 73.0% | percentage of heartburn-free days (highest of groups) ([3]; FAS Erosive, week 7 open-label lansoprazole, former LG 25 mg group): 81.9% | percentage of heartburn-free days (highest of groups) ([3]; FAS Erosive, week 8 open-label lansoprazole, former LG 25 mg group): 87.6% | severity grade of heartburn, rank among groups ([3]; FAS, first week, morning and evening, LG 75 mg BID): lowest severity grade | percentage of symptom free days (highest of groups) ([3]; FAS, week 1, LG 75 mg BID): 29.2% | heartburn-free days vs lansoprazole ([3]; FAS, week 1 to 4, all LG groups): more heartburn-free days | percentage of symptom free days (highest of groups) ([3]; FAS, week 2, LG 75 mg BID): 52.9% | percentage of symptom free days (highest of groups) ([3]; FAS, week 4, LG 100 mg BID): 62.2% | percentage of heartburn-free days (highest of groups) ([3]; FAS, week 5 open-label lansoprazole, former LG 75 mg group): 69.6% | heartburn-free days vs lansoprazole ([3]; FAS, week 5 to 8 open-label (all on lansoprazole 30 mg QD), former LG groups): more heartburn-free days | percentage of heartburn-free days (highest of groups) ([3]; FAS, week 7 open-label lansoprazole, former LG 25 mg group): 79.4% | percentage of heartburn-free days (highest of groups) ([3]; FAS, week 8 open-label lansoprazole, former LG 25 mg group): 82.4% | heartburn-free days, rank among groups ([3]; LA Grade A/B, week 1 to 3, LG 75 mg BID): highest percentage of heartburn-free days | heartburn-free days, rank among groups ([3]; LA Grade A/B, week 5 open-label lansoprazole, former LG 75 mg group): highest percentage of heartburn-free days | heartburn-free days, rank among groups ([3]; LA Grade A/B, weeks 7 and 8 open-label lansoprazole, former LG 25 mg group): highest percentage of heartburn-free days | heartburn-free days, rank among groups ([3]; LA Grade C/D, week 1 and 4, LG 50 mg BID): highest percentage of heartburn-free days | heartburn-free days, rank among groups ([3]; LA Grade C/D, week 2, LG 75 mg BID): highest percentage of heartburn-free days | heartburn-free days, rank among groups ([3]; LA Grade C/D, week 3, LG 100 mg BID): highest percentage of heartburn-free days | heartburn-free days, rank among groups ([3]; LA Grade C/D, week 5 open-label lansoprazole, former LG 50 mg group): highest percentage of heartburn-free days | heartburn-free days, rank among groups ([3]; LA Grade C/D, week 6 to 8 open-label lansoprazole, former LG 75 mg group): highest percentage of heartburn-free days | % at most mild symptoms 24-hour days (mean) ([3]; LG 25 mg BID (N = 21)): 96% | % heartburn-free 24-hour days (mean) ([3]; LG 25 mg BID (N = 21)): 52% | Patients (%) totally free from heartburn ([3]; LG 25 mg BID (N = 21)): 45% | Patients (%) with at most mild heartburn ([3]; LG 25 mg BID (N = 21)): 97% | Patients (%) with non-mild heartburn ([3]; LG 25 mg BID (N = 21)): 6% | % at most mild symptoms 24-hour days (mean) ([3]; LG 50 mg BID (N = 27)): 96% | % heartburn-free 24-hour days (mean) ([3]; LG 50 mg BID (N = 27)): 56% | Patients (%) totally free from heartburn ([3]; LG 50 mg BID (N = 27)): 44% | Patients (%) with at most mild heartburn ([3]; LG 50 mg BID (N = 27)): 97% | Patients (%) with non-mild heartburn ([3]; LG 50 mg BID (N = 27)): 6% | % at most mild symptoms 24-hour days (mean) ([3]; LG 75 mg BID (N = 20)): 97% | % heartburn-free 24-hour days (mean) ([3]; LG 75 mg BID (N = 20)): 56% | Patients (%) totally free from heartburn ([3]; LG 75 mg BID (N = 20)): 50% | Patients (%) with at most mild heartburn ([3]; LG 75 mg BID (N = 20)): 87% | Patients (%) with non-mild heartburn ([3]; LG 75 mg BID (N = 20)): 13% | % at most mild symptoms 24-hour days (mean) ([3]; LG 100 mg BID (N = 19)): 100% | % heartburn-free 24-hour days (mean) ([3]; LG 100 mg BID (N = 19)): 76% | Patients (%) totally free from heartburn ([3]; LG 100 mg BID (N = 19)): 63% | Patients (%) with at most mild heartburn ([3]; LG 100 mg BID (N = 19)): 92% | Patients (%) with non-mild heartburn ([3]; LG 100 mg BID (N = 19)): 8% | intragastric pH two hours after the first dose [4]: Neutral intragastric pH
